According to patent publication US20190010139A1 (priority 2015, published 2019):
Read-outs that look alike come from different tables or passages of the source.

System: NL-RLuc virus
Assay: Inhibition of HIV replication (NL-RLuc luciferase reporter virus in MT-2 cells)
Format: cell-based
Settings: Human immunodeficiency virus 1, MT2, 120 h
Source text: Inhibition of HIV Replication:
A recombinant NL-RLuc proviral clone was constructed in which a section of the nef gene from NL4-3 was replaced with the Renilla Luciferase gene. This virus is fully infectious and can undergo multiple cycles of replication in cell culture. In addition, the luciferous reporter provides a simple and easy method for quantitating the extent of virus growth and consequently, the antiviral activity of test compounds. The plasmid pNLRLuc contains the proviral NL-Rluc DNA cloned into pUC 18 at the PvuII site. The NL-RLuc virus was prepared by transfection of 293T cells with the plasmid pNLRLuc. Transfections were performed using the LipofectAMINE PLUS kit from Invitrogen (Carlsbad, Calif.) according to the manufacturer and the virus generated was titered in MT-2 cells. For susceptibility analyses, the titrated virus was used to infect MT-2 cells in the presence of compound, and after 5 days of incubation, cells were processed and quantitated for virus growth by the amount of expressed luciferase. Assay media was RPMI 1640 supplemented with 10% heat inactivated fetal bovine serum (FBS), 100 units/ml penicillin G/100 units/ml streptomycin, 10 mM HEPES buffer pH 7.55 and 2 mM L-glutamine. The results from at least 2 experiments were used to calculate the EC50 values. Luciferase was quantitated using the Dual Luciferase kit from Promega (Madison, Wis.). Susceptibility of viruses to compounds was determined by incubation in the presence of serial dilutions of the compound. The 50% effective concentration (EC50) was calculated by using the exponential form of the median effect equation where (Fa)=1/[1+(ED50/drug conc.)^m](Johnson V A, Byington R T. Infectivity Assay. In Techniques in HIV Research. ed. Aldovini A, Walker B D. 71-76. New York: Stockton Press.1990). Activity equal to A refers to a compound having an EC50≤100 nM, while B and C denote compounds having an EC50 between 100 nM and 1 uM (B) or >1 uM (C).

Compound | EC50 (read-out: Activity) [µM] | EC50 (read-out: EC50 μM) [µM]
COc1ccc(NCc2nc(C)c([C@H](OC(C)(C)C)C(=O)O)c(N3CCC4(CCC4)CC3)c2-c2ccc(OCCc3ccc(F)cc3)cc2)cc1 [Example 47, (S)-2-(tert-Butoxy)-2-(5-(4-(4-fluorophenethoxy)phenyl)-6-(((4-methoxyphenyl)-amino)methyl)-2-methyl-4-(7-azaspiro[3.5]nonan-7-yl)pyridin-3-yl)acetic acid] | < 0.1 | 
Cc1nc(COCC2COC2)c(-c2ccc(OCCc3ccc(F)cc3)cc2)c(N2CCC3(CCC3)CC2)c1[C@H](OC(C)(C)C)C(=O)O [Example 48, (S)-2-(tert-Butoxy)-2-(5-(4-(4-fluorophenethoxy)phenyl)-2-methyl-6-((oxetan-3-ylmethoxy)methyl)-4-(7-azaspiro[3.5]nonan-7-yl)pyridin-3-yl)acetic acid] | < 0.1 | 
COc1cc(-c2c(C)nc(C)c([C@H](OC(C)(C)C)C(=O)O)c2N2CCC3(CCCC3)CC2)ccc1C(=O)NCc1ccccc1 [Example 25, (S)-2-(5-(4-(Benzylcarbamoyl)-3-methoxyphenyl)-2,6-dimethyl-4-(8-azaspiro[4.5]decan-8-yl)pyridin-3-yl)-2-(tert-butoxy)acetic acid] | < 0.1 | 
Cc1nc(CNCC2CCOCC2)c(-c2ccc(OCCc3ccc(F)cc3)cc2)c(N2CCC3(CCC3)CC2)c1[C@H](OC(C)(C)C)C(=O)O [Example 45, (S)-2-(tert-Butoxy)-2-(5-(4-(4-fluorophenethoxy)phenyl)-2-methyl-4-(7-azaspiro[3.5]nonan-7-yl)-6-((((tetrahydro-2H-pyran-4-yl)methyl)amino)methyl)pyridin-3-yl)acetic acid] | < 0.1 | 
Cc1nc(C)c([C@H](OC(C)(C)C)C(=O)O)c(N2CC3CCC(C)(C2)C3(C)C)c1-c1ccc(C(=O)NCc2ccccc2)cc1 (stereo partly drawn) [Example 5, (S)-2-(5-(4-(Benzylcarbamoyl)phenyl)-2,6-dimethyl-4-(1,8,8-trimethyl-3-azabicyclo[3.2.1]octan-3-yl)pyridin-3-yl)-2-(tert-butoxy)acetic acid] | < 0.1 | 
Cc1nc(C)c([C@H](OC(C)(C)C)C(=O)O)c(N2CC3CC3C2)c1-c1ccc(OCCc2ccc(F)cc2)cc1 (stereo partly drawn) [Example 6, (2S)-2-(4-(3-Azabicyclo[3.1.0]hexan-3-yl)-5-(4-(4-fluorophenethoxy)phenyl)-2,6-dimethylpyridin-3-yl)-2-(tert-butoxy)acetic acid] | 0.1 to 1 | 
COc1cc(-c2c(C)nc(C)c([C@H](OC(C)(C)C)C(=O)O)c2N2CCC3(CCC3)CC2)ccc1C(=O)NCc1ccccc1 [Example 32, (S)-2-(5-(4-(Benzylcarbamoyl)-3-methoxyphenyl)-2,6-dimethyl-4-(7-azaspiro[3.5]nonan-7-yl)pyridin-3-yl)-2-(tert-butoxy)acetic acid] | < 0.1 | 
Cc1nc(C)c([C@H](OC(C)(C)C)C(=O)O)c(N2CC3C(C2)C3(C)C)c1-c1ccc(OCCc2ccc(F)cc2)cc1 (stereo partly drawn) [Example 8, (2S)-2-(tert-Butoxy)-2-(4-(6,6-dimethyl-3-azabicyclo[3.1.0]hexan-3-yl)-5-(4-(4-fluorophenethoxy)phenyl)-2,6-dimethyl-pyridin-3-yl)acetic acid] | < 0.1 | 
Cc1nc(C)c([C@H](OC(C)(C)C)C(=O)O)c(N2CCC3(CCC3)CC2)c1-c1ccc(C(=O)NCc2ccccc2)c(F)c1 [Example 31, (S)-2-(5-(4-(Benzylcarbamoyl)-3-fluorophenyl)-2,6-dimethyl-4-(7-azaspiro[3.5]nonan-7-yl)pyridin-3-yl)-2-(tert-butoxy)acetic acid] | < 0.1 | 
Cc1nc(C)c([C@H](OC(C)(C)C)C(=O)O)c(N2CCC3(CCCCC3)C2)c1-c1ccc(OCCc2ccc(F)cc2)cc1 [Example 62, (S)-2-(tert-Butoxy)-2-(5-(4-(4-fluorophenethoxy)phenyl)-2,6-dimethyl-4-(2-azaspiro[4.5]decan-2-yl)pyridin-3-yl)acetic acid] | < 0.1 | 0.017
CCOCCOCc1nc(C)c([C@H](OC(C)(C)C)C(=O)O)c(N2CCC3(CCC3)CC2)c1-c1ccc(OCCc2ccc(F)cc2)cc1 [Example 49, (S)-2-(tert-Butoxy)-2-(6-((2-ethoxyethoxy)methyl)-5-(4-(4-fluoro-phenethoxy)phenyl)-2-methyl-4-(7-azaspiro[3.5]nonan-7-yl)pyridin-3-yl)acetic acid] | < 0.1 | 0.006
Cc1nc(C)c([C@H](OC(C)(C)C)C(=O)O)c(N2CC3CC3C2)c1-c1ccc(C(=O)NCc2ccccc2)cc1 (stereo partly drawn) [Example 7, (2S)-2-(5-(4-(Benzylcarbamoyl)phenyl)-4-(3-azabicyclo[3.1.0]hexan-3-yl)-2,6-dimethylpyridin-3-yl)-2-(tert-butoxy)acetic acid] | 0.1 to 1 | 0.651
CCOCc1nc(C)c([C@H](OC(C)(C)C)C(=O)O)c(N2CCC3(CCC3)CC2)c1-c1ccc(OCCc2ccc(F)cc2)cc1 [Example 41, (S)-2-(tert-Butoxy)-2-(6-(ethoxymethyl)-5-(4-(4-fluorophenethoxy)phenyl)-2-methyl-4-(7-azaspiro[3.5]nonan-7-yl)pyridin-3-yl)acetic acid] | < 0.1 | 
Cc1cc(F)ccc1CN1CCc2cc(-c3c(C)nc(C)c([C@H](OC(C)(C)C)C(=O)O)c3N3CCC4(CCC4)CC3)ccc2C1 [Example 35, (S)-2-(tert-Butoxy)-2-(5-(2-(4-fluoro-2-methylbenzyl)-1,2,3,4-tetrahydroisoquinolin-6-yl)-2,6-dimethyl-4-(7-azaspiro[3.5]nonan-7-yl)pyridin-3-yl)acetic acid] | < 0.1 | 0.006
Cc1ccc(CN2CCc3cc(-c4c(C)nc(C)c([C@H](OC(C)(C)C)C(=O)O)c4N4CCC5(CCC5)CC4)ccc3C2)c(F)c1 [Example 37, (S)-2-(tert-Butoxy)-2-(5-(2-(2-fluoro-4-methylbenzyl)-1,2,3,4-tetrahydroisoquinolin-6-yl)-2,6-dimethyl-4-(7-azaspiro[3.5]nonan-7-yl)pyridin-3-yl)acetic acid] | < 0.1 | 
Cc1nc(C)c([C@H](OC(C)(C)C)C(=O)O)c(N2CCC3(CCNC3)CC2)c1-c1ccc(OCCc2ccc(F)cc2)cc1 [Example 68, (S)-2-(tert-Butoxy)-2-(5-(4-(4-fluorophenethoxy)phenyl)-2,6-dimethyl-4-(2,8-diazaspiro[4.5]decan-8-yl)pyridin-3-yl)acetic acid] | 0.1 to 1 | 0.731
Cc1nc(C)c([C@H](OC(C)(C)C)C(=O)O)c(N2CCC3(CCCCC3)C2)c1-c1ccc(C(=O)NCc2ccccc2)cc1 [Example 63, (S)-2-(5-(4-(Benzylcarbamoyl)phenyl)-2,6-dimethyl-4-(2-azaspiro[4.5]decan-2-yl)pyridin-3-yl)-2-(tert-butoxy)acetic acid] | < 0.1 | 
COCCN(C)Cc1nc(C)c([C@H](OC(C)(C)C)C(=O)O)c(N2CCC3(CCC3)CC2)c1-c1ccc(OCCc2ccc(F)cc2)cc1 [Example 43, (S)-2-(tert-Butoxy)-2-(5-(4-(4-fluorophenethoxy)phenyl)-6-(((2-methoxyethyl)(methyl)amino)methyl)-2-methyl-4-(7-azaspiro[3.5]nonan-7-yl)pyridin-3-yl)acetic acid] | < 0.1 | 
Cc1nc(CN(C)C2CCOCC2)c(-c2ccc(OCCc3ccc(F)cc3)cc2)c(N2CCC3(CCC3)CC2)c1[C@H](OC(C)(C)C)C(=O)O [Example 50, (S)-2-(tert-Butoxy)-2-(5-(4-(4-fluorophenethoxy)phenyl)-2-methyl-6-((methyl(tetrahydro-2H-pyran-4-yl)amino)methyl)-4-(7-azaspiro[3.5]nonan-7-yl)pyridin-3-yl)acetic acid] | < 0.1 | 
Cc1nc(CF)c(-c2ccc(OCCc3ccc(F)cc3)cc2)c(N2CCC3(CCC3)CC2)c1[C@H](OC(C)(C)C)C(=O)O [Example 40, (S)-2-(tert-Butoxy)-2-(6-(fluoromethyl)-5-(4-(4-fluorophenethoxy)phenyl)-2-methyl-4-(7-azaspiro[3.5]nonan-7-yl)pyridin-3-yl)acetic acid] | < 0.1 | 
Cc1nc(C)c([C@H](OC(C)(C)C)C(=O)O)c(N2CC3CCCC3C2)c1-c1ccc(OCCc2ccc(F)cc2)cc1 (some centres unmarked) [Example 3] | < 0.1 | 
Cc1nc(C)c([C@H](OC(C)(C)C)C(=O)O)c(N2CCC3(CC2)CC3(F)F)c1-c1ccc(C(=O)NCc2ccccc2)cc1 [Example 71, (S)-2-(5-(4-(Benzylcarbamoyl)phenyl)-4-(1,1-difluoro-6-azaspiro[2.5]octan-6-yl)-2,6-dimethylpyridin-3-yl)-2-(tert-butoxy)acetic acid] | < 0.1 | 0.018
Cc1nc(CO)c([C@H](OC(C)(C)C)C(=O)O)c(N2CCC3(CCC3)CC2)c1-c1ccc(OCCc2ccc(F)cc2)cc1 [Example 39, (S)-2-(tert-Butoxy)-2-(5-(4-(4-fluorophenethoxy)phenyl)-2-(hydroxymethyl)-6-methyl-4-(7-azaspiro[3.5]nonan-7-yl)pyridin-3-yl)acetic acid] | < 0.1 | 
